Assay results reported in patent US20240383875A1, “Benzimidazole Pyridine Derivatives” (Hoffmann-La Roche Inc., priority 2022, published 2024).

Legend:
Type in all cases: biochemical
SIK1 = SIK1 (Homo sapiens, UniProt P57059); experiment: Enzymatic activity assay SIK1, RapidFire mass spectrometry (phosphorylation of CHK-peptide); details: RapidFire MS, inhibition of SIK1; read-out: SIK1 RF IC50
Method in brief: (§1)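 Human SIK1/2/3, 5/0.5/1.5 nM; 12.5 mM HEPES pH 7.0, 10 mM Mg acetate, 0.005% BSA. 30 min cpd pre-inc, + CHK-peptide (10 μM soln) + ATP (100 μM soln), 45 min RT. Formic acid stop; RF-MS phospho ratio; IC50.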

SIK3 = SIK3 (Homo sapiens, UniProt Q9Y2K2); experiment: Enzymatic activity assay SIK3, RapidFire mass spectrometry (phosphorylation of CHK-peptide); details: RapidFire MS, inhibition of SIK3; read-out: SIK3 RF IC50
Method in brief: as §1

SIK2 = SIK2 (Homo sapiens, UniProt Q9H0K1); experiment: Enzymatic activity assay SIK2, RapidFire mass spectrometry (phosphorylation of CHK-peptide); details: RapidFire MS, inhibition of SIK2; read-out: SIK2 RF IC50
Method in brief: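 Read-out is the summed phospho-species fraction of CHK-peptide by RapidFire mass spectrometry, normalized between DMSO and 1 μM YKL-05-099. The reaction used 0.5 nM SIK2, 100 μM ATP and 10 μM peptide solutions in HEPES pH 7.0/10 mM magnesium acetate for 45 min at ambient temperature.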

SIK2, sequence (Q9H0K1 whole entry): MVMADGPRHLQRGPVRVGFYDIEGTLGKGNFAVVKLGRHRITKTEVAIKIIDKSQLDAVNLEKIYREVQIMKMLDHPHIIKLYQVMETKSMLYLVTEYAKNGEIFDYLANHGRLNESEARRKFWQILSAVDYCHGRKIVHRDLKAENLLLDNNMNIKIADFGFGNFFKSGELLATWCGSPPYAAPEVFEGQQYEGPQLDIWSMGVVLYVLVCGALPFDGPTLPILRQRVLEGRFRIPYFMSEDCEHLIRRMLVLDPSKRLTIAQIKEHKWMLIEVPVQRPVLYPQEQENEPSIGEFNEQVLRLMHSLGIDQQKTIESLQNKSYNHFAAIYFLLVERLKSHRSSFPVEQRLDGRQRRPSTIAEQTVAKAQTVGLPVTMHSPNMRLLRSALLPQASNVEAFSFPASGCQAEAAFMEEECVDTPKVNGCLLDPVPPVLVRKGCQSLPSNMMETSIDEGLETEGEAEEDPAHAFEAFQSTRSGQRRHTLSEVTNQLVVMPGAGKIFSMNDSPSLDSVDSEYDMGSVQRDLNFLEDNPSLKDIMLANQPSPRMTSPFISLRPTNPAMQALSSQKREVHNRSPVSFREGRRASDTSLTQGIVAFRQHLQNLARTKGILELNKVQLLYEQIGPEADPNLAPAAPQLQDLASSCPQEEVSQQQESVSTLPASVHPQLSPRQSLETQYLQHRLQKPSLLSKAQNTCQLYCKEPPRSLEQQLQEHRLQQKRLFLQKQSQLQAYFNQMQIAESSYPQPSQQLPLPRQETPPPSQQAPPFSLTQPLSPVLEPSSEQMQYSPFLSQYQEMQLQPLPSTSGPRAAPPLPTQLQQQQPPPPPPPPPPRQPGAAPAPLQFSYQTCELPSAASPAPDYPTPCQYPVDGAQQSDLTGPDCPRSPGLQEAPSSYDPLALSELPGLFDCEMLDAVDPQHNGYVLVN
SIK1, sequence (P57059 whole entry): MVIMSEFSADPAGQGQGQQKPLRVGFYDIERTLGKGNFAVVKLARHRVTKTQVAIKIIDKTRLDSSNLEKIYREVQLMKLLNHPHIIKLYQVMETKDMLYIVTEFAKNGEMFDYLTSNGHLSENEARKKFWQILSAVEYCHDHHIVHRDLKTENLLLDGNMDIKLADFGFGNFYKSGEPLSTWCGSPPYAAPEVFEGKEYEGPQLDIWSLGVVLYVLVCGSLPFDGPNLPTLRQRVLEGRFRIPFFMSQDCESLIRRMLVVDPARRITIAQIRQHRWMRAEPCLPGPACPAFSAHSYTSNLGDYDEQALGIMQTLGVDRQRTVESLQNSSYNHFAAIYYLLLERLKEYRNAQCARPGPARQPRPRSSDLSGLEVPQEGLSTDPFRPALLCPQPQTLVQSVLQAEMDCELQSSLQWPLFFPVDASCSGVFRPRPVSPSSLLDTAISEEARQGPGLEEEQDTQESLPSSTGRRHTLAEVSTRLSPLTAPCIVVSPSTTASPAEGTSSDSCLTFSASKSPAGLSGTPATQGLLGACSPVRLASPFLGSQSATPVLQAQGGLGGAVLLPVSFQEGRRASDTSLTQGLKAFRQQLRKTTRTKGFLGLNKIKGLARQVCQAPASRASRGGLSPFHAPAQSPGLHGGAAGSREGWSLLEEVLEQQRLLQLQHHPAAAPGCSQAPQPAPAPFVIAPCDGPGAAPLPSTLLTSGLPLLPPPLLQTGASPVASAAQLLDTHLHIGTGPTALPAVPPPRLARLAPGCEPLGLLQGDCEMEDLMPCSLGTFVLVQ
SIK3, sequence (Q9Y2K2 whole entry): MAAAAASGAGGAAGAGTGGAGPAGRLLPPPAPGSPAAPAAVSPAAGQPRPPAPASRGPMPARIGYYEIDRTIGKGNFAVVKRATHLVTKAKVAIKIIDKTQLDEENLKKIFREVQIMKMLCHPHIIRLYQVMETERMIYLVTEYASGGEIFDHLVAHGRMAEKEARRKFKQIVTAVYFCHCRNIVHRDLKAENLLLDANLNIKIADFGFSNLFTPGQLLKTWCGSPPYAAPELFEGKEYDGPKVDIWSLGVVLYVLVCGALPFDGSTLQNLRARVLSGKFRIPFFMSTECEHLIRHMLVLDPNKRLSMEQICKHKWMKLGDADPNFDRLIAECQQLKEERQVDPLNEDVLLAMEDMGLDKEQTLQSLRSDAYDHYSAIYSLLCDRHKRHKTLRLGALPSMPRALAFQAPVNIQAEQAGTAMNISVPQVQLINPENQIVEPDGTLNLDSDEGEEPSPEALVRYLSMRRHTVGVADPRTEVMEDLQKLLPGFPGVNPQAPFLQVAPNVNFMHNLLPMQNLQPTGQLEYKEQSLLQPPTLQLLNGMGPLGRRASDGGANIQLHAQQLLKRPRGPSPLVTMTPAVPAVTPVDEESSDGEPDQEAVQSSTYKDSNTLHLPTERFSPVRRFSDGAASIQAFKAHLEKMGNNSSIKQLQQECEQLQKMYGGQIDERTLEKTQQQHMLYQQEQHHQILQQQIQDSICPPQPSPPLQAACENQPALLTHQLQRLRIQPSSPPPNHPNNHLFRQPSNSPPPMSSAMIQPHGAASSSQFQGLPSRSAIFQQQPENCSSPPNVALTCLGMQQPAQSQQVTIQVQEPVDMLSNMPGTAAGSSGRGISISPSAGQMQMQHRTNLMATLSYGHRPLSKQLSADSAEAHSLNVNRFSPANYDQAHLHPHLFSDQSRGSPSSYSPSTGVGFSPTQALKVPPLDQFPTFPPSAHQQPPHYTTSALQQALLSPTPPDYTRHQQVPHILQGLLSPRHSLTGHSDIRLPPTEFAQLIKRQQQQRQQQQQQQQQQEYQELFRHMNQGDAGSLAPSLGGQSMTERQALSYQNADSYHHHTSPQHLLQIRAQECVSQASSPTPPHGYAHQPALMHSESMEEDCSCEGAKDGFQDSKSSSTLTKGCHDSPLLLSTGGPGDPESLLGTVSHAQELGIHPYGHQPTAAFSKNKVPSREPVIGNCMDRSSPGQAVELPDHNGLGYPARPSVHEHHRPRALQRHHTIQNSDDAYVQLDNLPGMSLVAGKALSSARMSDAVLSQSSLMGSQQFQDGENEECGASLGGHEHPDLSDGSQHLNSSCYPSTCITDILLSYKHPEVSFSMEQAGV

Row | SMILES | IC50 (SIK1) | IC50 (SIK3) | IC50 (SIK2)
1 | Cc1ccc(Nc2ccc3c(c2)ncn3-c2ccc(C(C)O)c(N3CC4CC4(C#N)C3)n2)nn1 (stereo not drawn) [Example 321, 3-[3-(1-hydroxyethyl)-6-[5-[(6-methylpyridazin-3-yl)amino]benzimidazol-1-yl]-2-pyridyl]-3-azabicyclo[3.1.0]hexane-1-carbonitrile] | 1100 nM | 3.5 nM | 19.2 nM
2 | Cc1ccc(Nc2ccc3c(c2)ncn3-c2ccc(C(C)O)c(N3CC4CC3CC4(F)F)n2)nn1 (stereo not drawn) [Example 322, 1-[2-(5,5-difluoro-2-azabicyclo[2.2.1]heptan-2-yl)-6-[5-[(6-methylpyridazin-3-yl)amino]benzimidazol-1-yl]-3-pyridyl]ethanol] | 966 nM | 2.4 nM | 16.3 nM
3 | Cc1ccc(Nc2ccc3c(c2)ncn3-c2ccc(C(C)O)c(N3CC4CC3C(F)(F)C4)n2)nn1 (stereo not drawn) [Example 324, 1-[2-(6,6-difluoro-2-azabicyclo[2.2.1]heptan-2-yl)-6-[5-[(6-methylpyridazin-3-yl)amino]benzimidazol-1-yl]-3-pyridyl]ethanol] | 577 nM | 0.8 nM | 10.5 nM
4 | Cc1cc(C#N)nn1-c1nc(-n2cnc3cc(NC(=O)C4CC4)ccc32)ccc1C(C)O (stereo not drawn) [Example 327, N-[1-[6-(3-cyano-5-methyl-pyrazol-1-yl)-5-(1-hydroxyethyl)-2-pyridyl]benzimidazol-5-yl]cyclopropanecarboxamide] | 40 nM | 4.1 nM | 7.2 nM
5 | Cc1cc(C#N)nn1-c1nc(-n2cnc3ccc(NC(=O)C4CC4)cc32)ccc1C(C)O (stereo not drawn) [Example 328, N-[3-[6-(3-cyano-5-methyl-pyrazol-1-yl)-5-(1-hydroxyethyl)-2-pyridyl]benzimidazol-5-yl]cyclopropanecarboxamide] | 127 nM | 36.5 nM | 66.1 nM
6 | Cc1ccc(Nc2ccc3c(c2)ncn3-c2ccc(C(C)O)c(N3CCNC4(CC4)C3)n2)nn1 (stereo not drawn) [Example 329, 1-[2-(4,7-diazaspiro[2.5]octan-7-yl)-6-[5-[(6-methylpyridazin-3-yl)amino]benzimidazol-1-yl]-3-pyridyl]ethanol] | 1740 nM | 10 nM | 59 nM
7 | Cc1cc(C#N)nn1-c1nc(-n2cnc3cc(N4CC[C@H]5CNC(=O)[C@H]54)ccc32)ccc1C(C)O (stereo partly drawn) [Example 330, 1-[6-[5-[(3aS,6aS)-6-oxo-2,3,3a,4,5,6a-hexahydropyrrolo[2,3-c]pyrrol-1-yl]benzimidazol-1-yl]-3-(1-hydroxyethyl)-2-pyridyl]-5-methylpyrazole-3-carbonitrile] | 113 nM | 51.3 nM | 26 nM
8 | Cc1ccc(Nc2ccc3c(c2)ncn3-c2ccc(C(C)O)c(N3CCNC(C(F)(F)F)C3)n2)nn1 (stereo not drawn) [Example 331, 1-[6-[5-[(6-methylpyridazin-3-yl)amino]benzimidazol-1-yl]-2-[3-(trifluoromethyl)piperazin-1-yl]-3-pyridyl]ethanol] | 3340 nM | 9.3 nM | 71.5 nM
9 | Cc1ccc(Nc2ccc3c(c2)ncn3-c2ccc(C(C)O)c(-c3cc(C(F)(F)F)ncc3C)n2)nn1 (stereo not drawn) [Example 332, 1-[6-[5-[(6-methylpyridazin-3-yl)amino]benzimidazol-1-yl]-2-[5-methyl-2-(trifluoromethyl)-4-pyridyl]-3-pyridyl]ethanol] | 316 nM | 2.8 nM | 5.3 nM
10 | Cc1cc(C#N)nn1-c1nc(-n2cnc3cc(Nc4cccn(C)c4=O)ccc32)ccc1C(C)O (stereo not drawn) [Example 333, 1-[3-(1-hydroxyethyl)-6-[5-[(2-keto-1-methyl-3-pyridyl)amino]benzimidazol-1-yl]-2-pyridyl]-5-methyl-pyrazole-3-carbonitrile] | 41 nM | 19.4 nM | 25.1 nM
11 | COc1nn(C)cc1-c1ccc2c(c1)ncn2-c1ccc(C(C)O)c(-n2nc(C#N)cc2C)n1 (stereo not drawn) [Example 334, 1-[3-(1-hydroxyethyl)-6-[5-(3-methoxy-1-methyl-pyrazol-4-yl)benzimidazol-1-yl]-2-pyridyl]-5-methyl-pyrazole-3-carbonitrile] | 3 nM | 3.4 nM | 1.6 nM
12 | Cc1cc(C#N)nn1-c1nc(-n2cnc3ccc(-c4ccn(C)c(=O)n4)cc32)ccc1C(C)O (stereo not drawn) [Example 336, 1-[3-(1-hydroxyethyl)-6-[6-(1-methyl-2-oxo-pyrimidin-4-yl)benzimidazol-1-yl]-2-pyridyl]-5-methyl-pyrazole-3-carbonitrile] | 29 nM | 139 nM | 28.6 nM

Next, values leading:

Row | IC50 (SIK1) | IC50 (SIK3) | IC50 (SIK2) | SMILES
13 | 2120 nM | 7 nM | 6.7 nM | Cc1ccc(Nc2cc3ncn(-c4ccc(CO)c(-n5nc(C(F)F)cc5C)n4)c3cc2F)nn1 [Example 319, [2-[3-(difluoromethyl)-5-methyl-pyrazol-1-yl]-6-[6-fluoro-5-[(6-methylpyridazin-3-yl)amino]benzimidazol-1-yl]-3-pyridyl]methanol]
14 | 4860 nM | 9.5 nM | 65.3 nM | Cc1ccc(Nc2ccc3c(c2)ncn3-c2ccc(C(C)O)c(N3CCOC(C(F)(F)F)C3)n2)nn1 (stereo not drawn) [Example 320, 1-[6-[5-[(6-methylpyridazin-3-yl)amino]benzimidazol-1-yl]-2-[2-(trifluoromethyl)morpholin-4-yl]-3-pyridyl]ethanol]
15 | 2530 nM | 7.1 nM | 48.5 nM | Cc1ccc(Nc2ccc3c(c2)ncn3-c2ccc(C(C)O)c(N3CCOC(C(F)F)C3)n2)nn1 (stereo not drawn) [Example 323, 1-[2-[2-(difluoromethyl)morpholin-4-yl]-6-[5-[(6-methylpyridazin-3-yl)amino]benzimidazol-1-yl]-3-pyridyl]ethanol]
16 | 1120 nM | 3.4 nM | 21.4 nM | Cc1ccc(Nc2ccc3c(c2)ncn3-c2ccc(C(C)O)c(N3CC(C(F)F)C4(CC4)C3)n2)nn1 (stereo not drawn) [Example 325, 1-[2-[7-(difluoromethyl)-5-azaspiro[2.4]heptan-5-yl]-6-[5-[(6-methylpyridazin-3-yl)amino]benzimidazol-1-yl]-3-pyridyl]ethanol]
17 | 1670 nM | 7.8 nM | 67.1 nM | Cc1ccc(Nc2ccc3c(c2)ncn3-c2ccc(C(C)O)c(N3CC4CC(F)(F)C4C3)n2)nn1 (stereo not drawn) [Example 326, 1-[2-(6,6-difluoro-3-azabicyclo[3.2.0]heptan-3-yl)-6-[5-[(6-methylpyridazin-3-yl)amino]benzimidazol-1-yl]-3-pyridyl]ethanol]
18 | 10 nM | 0.3 nM | 1 nM | Cc1ccc(Nc2ccc3c(c2)ncn3-c2ccc(C(C)O)c(-c3cc(C(F)F)ncc3C)n2)nn1 (stereo not drawn) [Example 335, 1-[2-[2-(difluoromethyl)-5-methyl-4-pyridyl]-6-[5-[(6-methlpyridazin-3-yl)amino]benzimidazol-1-yl]-3-pyridyl]ethanol]
19 | 1200 nM | 4.8 nM | 8.3 nM | Cc1cc(C(F)F)nn1-c1nc(-n2cnc3cc(Nc4ccc(C5(C)OCCO5)nn4)c(F)cc32)ccc1C(C)O (stereo not drawn) [Example 337, 1-[2-[3-(difluoromethyl)-5-methyl-pyrazol-1-yl]-6-[6-fluoro-5-[[6-(2-methyl-1,3-dioxolan-2-yl)pyridazin-3-yl]amino]benzimidazol-1-yl]-3-pyridyl]ethanol]
